# The source made the active and inactive calls. The rule behind the calls is not given here.
# Tests used:
# [1] = system: Mus musculus; test: In vivo inhibition of EGFR L858R/T790M mutant in BALB/c nude mouse xenografted with human Osimertinib-resistant NCI-H1975 cell (AZDR) assessed as downregulation of AKT phosphorylation at 10 mg/kg, po measured after 22 days; type: functional, organism-based; details: time 22.0 day
# [2] = system: Osimertinib-resistant NCI-H1975 cell; test: Antiproliferative activity against human Osimertinib-resistant NCI-H1975 cell (AZDR) incubated for 72 hrs by MTT assay; type: functional, cell-based
# [3] = system: NCI-H1975; test: Antiproliferative activity against human NCI-H1975 cells incubated for 72 hrs by MTT assay; type: functional, cell-based; details: NCI-H1975, 72 h
# [4] = system: Osimertinib-resistant NCI-H1975 cell; test: Anticancer activity against human Osimertinib-resistant NCI-H1975 cell (AZDR) xenografted in BALB/c nude mouse model assessed as increase in tumor cell apoptosis at 10 mg/kg, po by TUNEL assay; type: functional, organism-based
# [5] = system: Osimertinib-resistant NCI-H1975 cell; test: Induction of apoptosis in human Osimertinib-resistant NCI-H1975 cell (AZDR) assessed as late apoptotic cells at 1 uM incubated for 24 hrs in presence of dasatinib by Annexin V and propidium iodide staining based flow cytometry analysis (reference value: 1.06%); type: functional
# [6] = system: Mus musculus; test: In vivo inhibition of EGFR L858R/T790M mutant in BALB/c nude mouse xenografted with human Osimertinib-resistant NCI-H1975 cell (AZDR) assessed as downregulation of EGFR phosphorylation at 10 mg/kg, po measured after 22 days; type: functional, organism-based; details: time 22.0 day
# [7] = system: Osimertinib-resistant NCI-H1975 cell; test: Induction of apoptosis in human Osimertinib-resistant NCI-H1975 cell (AZDR) assessed as early apoptotic cells at 1 uM incubated for 24 hrs by Annexin V and propidium iodide staining based flow cytometry analysis (reference value: 3.38%); type: functional
# [8] = system: MCF7; test: Antiproliferative activity against human MCF7 cells incubated for 72 hrs by MTT assay; type: functional, cell-based; details: MCF7, 72 h
# [9] = system: Osimertinib-resistant NCI-H1975 cell; test: Induction of apoptosis in human Osimertinib-resistant NCI-H1975 cell (AZDR) assessed as late apoptotic cells at 1 uM incubated for 24 hrs by Annexin V and propidium iodide staining based flow cytometry analysis (reference value: 1.06%); type: functional
# [10] = system: Osimertinib-resistant NCI-H1975 cell; test: Anticancer activity against human Osimertinib-resistant NCI-H1975 cell (AZDR) xenografted in BALB/c nude mouse model assessed as increase in tumor cell apoptosis at 10 mg/kg, po in presence of dasatinib by TUNEL assay; type: functional, organism-based
# [11] = system: Osimertinib-resistant NCI-H1975 cell; test: Induction of apoptosis in human Osimertinib-resistant NCI-H1975 cell (AZDR) assessed as early apoptotic cells at 1 uM incubated for 24 hrs in presence of dasatinib by Annexin V and propidium iodide staining based flow cytometry analysis (reference value: 3.38%); type: functional
# [12] = system: Mus musculus; test: In vivo inhibition of ACK1 in BALB/c nude mouse xenografted with human Osimertinib-resistant NCI-H1975 cell (AZDR) assessed as downregulation of ACK1 phosphorylation at 10 mg/kg, po measured after 22 days; type: functional, organism-based; details: time 22.0 day
# [13] = system: Osimertinib-resistant NCI-H1975 cell; test: Induction of apoptosis in human Osimertinib-resistant NCI-H1975 cell (AZDR) assessed as early apoptotic cells at 1 uM incubated for 24 hrs in presence of osimertinib by Annexin V and propidium iodide staining based flow cytometry analysis (reference value: 3.38%); type: functional
# [14] = system: Osimertinib-resistant NCI-H1975 cell; test: Induction of apoptosis in human Osimertinib-resistant NCI-H1975 cell (AZDR) assessed as late apoptotic cells at 1 uM incubated for 24 hrs in presence of osimertinib by Annexin V and propidium iodide staining based flow cytometry analysis (reference value: 1.06%); type: functional
# [15] = system: Osimertinib-resistant NCI-H1975 cell; test: Anticancer activity against human Osimertinib-resistant NCI-H1975 cell (AZDR) xenografted in BALB/c nude mouse model assessed as increase tumor cell apoptosis at 10 mg/kg, po in presence of osimertinib by TUNEL assay; type: functional, organism-based
# [16] = system: Osimertinib-resistant NCI-H1975 cell; test: Induction of apoptosis in human Osimertinib-resistant NCI-H1975 cell (AZDR) assessed as late apoptotic cells at 10 uM incubated for 24 hrs by Annexin V and propidium iodide staining based flow cytometry analysis (reference value: 1.06%); type: functional
# [17] = Toxicity in BALB/c nude mouse assessed as effect on lung at 20 to 60 mg/kg, ip measured after 22 days by H and E staining based analysis; type: organism-based; details: in vivo, 528 h, dose 20-60 mg/kg, time 22 day
# [18] = Stability of the compound assessed as half life in presence of glutathione at pH 7.4; type: physicochemical; details: solution containing glutathione
# [19] = Toxicity in BALB/c nude mouse assessed as effect on body weight at 20 to 60 mg/kg, ip measured upto 22 days; type: organism-based; details: in vivo, 528 h, dose 20-60 mg/kg, time < 22 day
# [20] = system: Osimertinib-resistant NCI-H1975 cell; test: Induction of apoptosis in human Osimertinib-resistant NCI-H1975 cell (AZDR) assessed as early apoptotic cells at 0.1 uM incubated for 24 hrs by Annexin V and propidium iodide staining based flow cytometry analysis (reference value: 3.38%); type: functional
# [21] = system: Osimertinib-resistant NCI-H1975 cell; test: Induction of apoptosis in human Osimertinib-resistant NCI-H1975 cell (AZDR) assessed as caspase3/7 activation using caspase-glo 3/7 as substrate incubated for 24 hrs by luminescence based analysis; type: functional; details: dose 0.1-10 µM
# [22] = target: T1, Serine/threonine-protein kinase AKT (Homo sapiens) (UniProt P31751+Q9Y243+P31749); test: Inhibition of AKT phosphorylation in human Osimertinib-resistant NCI-H1975 cell (AZDR) at 0.1 to 10 uM incubated for 24 hrs by Western blot analysis; type: cell-based; details: dose 0.1-10 µM
# T1 sequence (P31749 whole entry, looked up): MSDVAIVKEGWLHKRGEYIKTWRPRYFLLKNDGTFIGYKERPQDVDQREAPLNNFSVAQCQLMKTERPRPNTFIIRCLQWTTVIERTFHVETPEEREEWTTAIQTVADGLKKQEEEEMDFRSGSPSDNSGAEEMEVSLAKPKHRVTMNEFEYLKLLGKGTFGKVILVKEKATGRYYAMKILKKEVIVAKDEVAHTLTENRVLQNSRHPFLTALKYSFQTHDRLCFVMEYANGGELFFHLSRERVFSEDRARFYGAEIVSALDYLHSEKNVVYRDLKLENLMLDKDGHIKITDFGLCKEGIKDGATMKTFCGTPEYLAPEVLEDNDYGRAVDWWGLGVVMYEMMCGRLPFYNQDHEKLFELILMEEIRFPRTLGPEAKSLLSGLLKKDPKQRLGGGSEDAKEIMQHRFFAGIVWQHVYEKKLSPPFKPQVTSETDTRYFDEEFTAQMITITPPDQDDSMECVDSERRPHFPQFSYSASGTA
# T1 sequence (P31751 whole entry, looked up): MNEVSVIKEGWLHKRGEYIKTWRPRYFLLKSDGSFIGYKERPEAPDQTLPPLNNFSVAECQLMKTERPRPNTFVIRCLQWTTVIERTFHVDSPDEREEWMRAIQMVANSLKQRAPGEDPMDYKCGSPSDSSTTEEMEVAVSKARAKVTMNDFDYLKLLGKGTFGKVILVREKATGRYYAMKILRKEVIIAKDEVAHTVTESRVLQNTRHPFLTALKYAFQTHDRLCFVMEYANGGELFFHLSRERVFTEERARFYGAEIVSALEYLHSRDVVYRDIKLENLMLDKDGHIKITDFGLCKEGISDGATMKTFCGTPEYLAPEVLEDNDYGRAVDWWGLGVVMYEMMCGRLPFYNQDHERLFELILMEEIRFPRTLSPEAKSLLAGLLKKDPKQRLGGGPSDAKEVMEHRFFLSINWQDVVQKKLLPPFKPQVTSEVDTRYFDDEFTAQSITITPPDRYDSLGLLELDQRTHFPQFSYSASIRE
# T1 sequence (Q9Y243 whole entry, looked up): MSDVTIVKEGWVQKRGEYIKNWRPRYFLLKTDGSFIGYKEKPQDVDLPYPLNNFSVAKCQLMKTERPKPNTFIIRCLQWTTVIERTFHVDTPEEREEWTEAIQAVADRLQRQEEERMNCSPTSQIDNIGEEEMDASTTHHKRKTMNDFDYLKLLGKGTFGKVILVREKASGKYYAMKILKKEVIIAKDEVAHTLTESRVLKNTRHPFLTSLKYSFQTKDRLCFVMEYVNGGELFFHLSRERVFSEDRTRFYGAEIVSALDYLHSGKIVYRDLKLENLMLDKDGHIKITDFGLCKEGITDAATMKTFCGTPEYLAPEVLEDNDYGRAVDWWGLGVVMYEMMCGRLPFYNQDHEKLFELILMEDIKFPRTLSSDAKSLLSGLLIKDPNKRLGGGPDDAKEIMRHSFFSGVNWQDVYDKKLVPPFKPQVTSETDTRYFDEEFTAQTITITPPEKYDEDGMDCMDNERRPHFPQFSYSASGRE
# [23] = system: Osimertinib-resistant NCI-H1975 cell; test: Induction of apoptosis in human Osimertinib-resistant NCI-H1975 cell (AZDR) assessed as increase in number of apoptotic cells measured after 24 hrs by Hoechst 33258 staining based analysis; type: functional; details: dose 0.1-10 µM
# [24] = system: Osimertinib-resistant NCI-H1975 cell; test: Inhibition of cell migration in human Osimertinib-resistant NCI-H1975 cell (AZDR) measured after 24 hrs by wound healing assay; type: functional, cell-based; details: dose 0.1-10 µM
# [25] = system: Osimertinib-resistant NCI-H1975 cell; test: Induction of apoptosis in human Osimertinib-resistant NCI-H1975 cell (AZDR) assessed as early apoptotic cells at 10 uM incubated for 24 hrs by Annexin V and propidium iodide staining based flow cytometry analysis (reference value: 3.38%); type: functional
# [26] = target: T2, Tyrosine-protein kinase ITK/TSK (Homo sapiens) (UniProt Q08881); test: Inhibition of human ITK at 1 uM relative to control
# T2 sequence (whole entry): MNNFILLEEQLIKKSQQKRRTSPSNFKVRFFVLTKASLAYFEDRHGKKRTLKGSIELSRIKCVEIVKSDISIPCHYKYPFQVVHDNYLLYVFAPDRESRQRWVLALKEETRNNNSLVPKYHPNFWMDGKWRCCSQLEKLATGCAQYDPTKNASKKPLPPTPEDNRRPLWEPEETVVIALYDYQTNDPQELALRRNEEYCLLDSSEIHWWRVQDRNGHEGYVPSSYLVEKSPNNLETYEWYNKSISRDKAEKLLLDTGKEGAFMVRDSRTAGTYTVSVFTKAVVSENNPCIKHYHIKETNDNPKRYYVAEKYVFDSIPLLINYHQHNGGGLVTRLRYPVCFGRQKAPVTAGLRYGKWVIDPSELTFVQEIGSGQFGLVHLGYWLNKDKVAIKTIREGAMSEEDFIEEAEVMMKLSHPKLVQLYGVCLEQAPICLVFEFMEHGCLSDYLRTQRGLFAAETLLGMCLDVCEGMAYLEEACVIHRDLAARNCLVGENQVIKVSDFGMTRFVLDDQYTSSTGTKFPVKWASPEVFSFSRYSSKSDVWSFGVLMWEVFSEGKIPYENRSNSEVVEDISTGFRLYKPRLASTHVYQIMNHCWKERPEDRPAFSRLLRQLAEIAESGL
# [27] = system: Osimertinib-resistant NCI-H1975 cell; test: Induction of apoptosis in human Osimertinib-resistant NCI-H1975 cell (AZDR) assessed as caspase3/7 activation using caspase-glo 3/7 as substrate at 0.1 to 10 uM by luminescence based analysis; type: functional; details: dose 0.1-10 µM, time 24-72 hrs, TDE = time-dependent effect
# [28] = Toxicity in BALB/c nude mouse assessed as effect on liver at 20 to 60 mg/kg, ip measured after 22 days by H and E staining based analysis; type: organism-based; details: in vivo, 528 h, dose 20-60 mg/kg, time 22 day
# [29] = system: Osimertinib-resistant NCI-H1975 cell; test: Anticancer activity against human Osimertinib-resistant NCI-H1975 cell (AZDR) xenografted in BALB/c nude mouse model assessed as reduction in tumor weight administered as ip dose and measured upto 22 days; type: functional, organism-based; details: dose 20-60 mg/kg, time <= 22.0 day
# [30] = target: T1, Serine/threonine-protein kinase AKT (Homo sapiens); test: Inhibition of AKT phosphorylation in human NCI-H1975 cells incubated for 24 hrs by Western blot analysis; type: cell-based; details: dose 0.1-10 µM
# [31] = system: Osimertinib-resistant NCI-H1975 cell; test: Anticancer activity against human Osimertinib-resistant NCI-H1975 cell (AZDR) xenografted in BALB/c nude mouse model assessed as increase in tumor cell apoptosis administered as ip dose by TUNEL assay; type: functional, organism-based; details: dose 20-60 mg/kg
# [32] = system: Osimertinib-resistant NCI-H1975 cell; test: Anticancer activity against human Osimertinib-resistant NCI-H1975 cell (AZDR) xenografted in BALB/c nude mouse model assessed as inhibition of tumor growth administered as ip dose and measured upto 22 days; type: functional, organism-based; details: dose 20-60 mg/kg, time <= 22.0 day
# [33] = system: Osimertinib-resistant NCI-H1975 cell; test: Induction of apoptosis in human Osimertinib-resistant NCI-H1975 cell (AZDR) assessed as late apoptotic cells at 0.1 uM incubated for 24 hrs by Annexin V and propidium iodide staining based flow cytometry analysis (reference value: 1.06%); type: functional
# [34] = Toxicity in BALB/c nude mouse assessed as effect on heart at 20 to 60 mg/kg, ip measured after 22 days by H and E staining based analysis; type: organism-based; details: in vivo, 528 h, dose 20-60 mg/kg, time 22 day
# [35] = Toxicity in BALB/c nude mouse assessed as effect on spleen at 20 to 60 mg/kg, ip measured after 22 days by H and E staining based analysis; type: organism-based; details: in vivo, 528 h, dose 20-60 mg/kg, time 22 day
# [36] = Toxicity in BALB/c nude mouse assessed as effect on kidney at 20 to 60 mg/kg, ip measured after 22 days by H and E staining based analysis; type: organism-based; details: in vivo, 528 h, dose 20-60 mg/kg, time 22 day
# [37] = system: Osimertinib-resistant NCI-H1975 cell; test: Inhibition of colony formation in human Osimertinib-resistant NCI-H1975 cell (AZDR) measured after 14 days by crystal violet staining based analysis; type: functional; details: dose 0.1-10 µM, time 14.0 day
# [38] = system: Mus musculus; test: In vivo inhibition of EGFR L858R/T790M mutant in BALB/c nude mouse xenografted with human Osimertinib-resistant NCI-H1975 cell (AZDR) assessed as downregulation of AKT phosphorylation at 60 mg/kg, ip measured after 22 days; type: functional, organism-based; details: time 22.0 day
structure (smiles),measurement,setting,value
C=CC(=O)Nc1cc(Nc2nccc(-c3cn(C)c4ccccc34)n2)c(OC)cc1N(C)CCN(C)C [OSIMERTINIB],inhibition,[1],inactive
same,IC50,[2],4000 nM
same,IC50,[3],15 nM
same,Activity,[4],inactive
same,Activity,[5],20.6%
same,inhibition,[6],Active
same,Activity,[7],2.86%
same,IC50,[8],1160 nM
same,Activity,[9],1.22%
same,Activity,[10],Active
same,Activity,[11],19.6%
same,inhibition,[12],Active
Cc1nc(Nc2ncc(C(=O)Nc3c(C)cccc3Cl)s2)cc(N2CCN(CCO)CC2)n1 [DASATINIB ANHYDROUS],inhibition,[1],inactive
same,Activity,[13],19.6%
same,Activity,[4],inactive
same,Activity,[14],20.6%
same,inhibition,[6],Active
same,Activity,[7],10.2%
same,Activity,[9],7.4%
same,inhibition,[12],Active
same,Activity,[15],Active
C=CC(=O)Nc1cccc(Nc2nc(Nc3cnn(CC)c3)nc3ccc(Cl)cc23)c1,Activity,[16],30.7%
same,Activity,[17],Non-Toxic
same,half-life,[18],13.8 h
same,IC50,[2],670 nM
same,Activity,[19],Non-Toxic
same,IC50,[3],1040 nM
same,Activity,[20],10.7%
same,Activity,[21],Dose-Dependent Effect
same,inhibition,[22],Active
same,Activity,[23],Dose-Dependent Effect
same,Activity,[7],17.1%
same,inhibition,[24],Active
same,Activity,[25],48.6%
same,IC50,[8],1270 nM
same,inhibition,[26],81%
same,Activity,[27],Tde
same,Activity,[9],16.1%
same,Activity,[28],Non-Toxic
same,Activity,[29],Dose-Dependent Effect
same,inhibition,[30],Dose-Dependent Effect
same,Activity,[31],Dose-Dependent Effect
same,Activity,[32],Dose-Dependent Effect
same,Activity,[33],9.97%
same,Activity,[34],Non-Toxic
same,Activity,[35],Non-Toxic
same,Activity,[36],Non-Toxic
same,inhibition,[37],Dose-Dependent Effect
same,inhibition,[38],Active

# Reference: ChEMBL document CHEMBL5537206 (J Med Chem, 2024)
